Experimental data taken from patent US11479604B2, “Immunomodulatory peptides and methods for modulating the immune system in a subject” (Recepta Biopharma S.A., priority 2017, dated 2022).

Columns and labels:
[1] = tested on: human mo-DC from healthy donors; test: mo-DC generated under tolerogenic, TNF-alpha or LPS conditions, flow cytometry; type: cell-based
Method: To further evaluate and confirm this property, mo-DC were generated from healthy donors cells in three different conditions, all in the presence of GM-CSF (50 ng/mL) and IL-4 (50 ng/mL). To one group of cells at day 5, TGF-beta ([…]) and IL-10 (1 ug/mL) were added; to a second group, at day 5, TNF-alpha was added and to a third group, LPS (100 ng/mL) was added at day 6. The first condition is known to induce phenotypic changes in mo-DC consistent with a tolerogenic activity of the cells, while both other conditions generate mature mo-DC, with LPS representing a stronger maturation stimulus than TNF-alpha. […] At day 7 all cells were harvested and analyzed by flow cytometry.

[2] = tested on: B16F10-Nex2 melanoma cells; test: Syngeneic metastatic melanoma model, lung nodule count; type: in vivo, C57BL/6 mice
Method: (§1) Male C57BL/6 mice, 6 to 8-week-old were obtained from the Center for Development of Experimental Models (CEDEME), Federal University of Sao Paulo (UNIFESP). For the in vivo metastatic model, C57BL/6 mice received one intravenous (i.v.) injection of 2×10^5 viable B16-F10-Next melanoma cells in 100 μL. […] The control group received 100 μL PBS. Twenty-two days later, mice (minimum n=3 per group) had their lungs harvested, and the number of macroscopic melanotic nodules were counted. The Ethical Committee of Federal University of São Paulo, Project no. 1234, 2011, approved all experiments with animals, according to International guidelines. For the subcutaneous model, mice were injected with 5×10^5 tumor cells suspended in 100 μL of PBS in the right flank via the subcutaneous route. The peptide (300 μg) was solubilized in 10 μL of distilled H2O and 90 μL of PBS and injected per mouse via the intraperitoneal route. The administration of the peptide was performed in 5 alternate days initiating one day after tumor challenge. Tumor longitudinal diameter (D) and transverse diameter (d) were measured every 2 days until the tumor volume reached 3,000 mm3. Animals were sacrificed when the allowed volume was reached. Volume was calculated using the formula v=Dd^2×0.52. Tumor Cell Growth In Vitro and In Vivo Details of the in vitro tumor cell growth, cytotoxicity tests, determination of viable cells and in vivo protection experiments with B16F10 cells in a mouse metastatic model are described in Polonelli et al. (PLoS One. 3(6):e2371, 2008) and Dobroff et al. (Transl. Onc., 3: 204-217, 2010).
6 to 8 Week-old C57BL/6 mice (n=5, per group) were intravenously challenged with 1×10^5 of syngeneic B16F10-Nex2 viable cells in 0.1 mL of RPMI medium without FBS, and treated on the next day with intraperitoneal doses of 300 μg (10 mg/kg) each, of Scr1, Scr2, Scr3 or Scr4 peptide or with the control vehicle (PBS) in alternate days, total of 5 doses. After 14 days, mice were euthanized, and lungs were harvested and assessed for metastatic colonization. The number of metastatic lesions was quantified using a stereo microscope (Nikon, Tokyo). The percentage of the tumor area/total area was also quantified by ImageJ software.
B16F10-Nex2 tumor cells (2×10^5) in RPMI (100 μl) were injected in both animal groups in the tail veins on day 0. Animals were sacrificed on day 22, or 10 days after the last administration of the peptide, and their lungs were examined for dark melanotic nodules.
C57Bl6 mice were intravenously challenged with 4×10^5 syngeneic B16F10-Nex2 cells in 0.1 ml of RPMI without FBS.
Mice were injected with 5×10^5 B16F10-Nex2 cells i.v. suspended in 100 μl PBS. […] Imiquimod at 50 μg/100 μl was injected i.p. in 3 alternate days; CpG ODN 1585, i.p., in two alternate days; and Poly (I:C), i.p., in two alternate days. After 15 days of tumor challenge, the animals were sacrificed, the lungs were removed and the pulmonary nodules were counted.

[3] = tested on: bone marrow derived dendritic cells; test: CD74 receptor expression in myeloid dendritic cells; type: cell-based, mouse; conditions: murine dendritic cells
Method: After incubation the cells were stimulated with or without LPS (Sigma-Aldrich, Missouri, USA), at 200 ng/ml or tumor lysate (B16F10-Next cells) in the proportion of 30 DCs to 1 tumor cell, for 24 h. After incubation, the cells were harvested and stained with anti-CD74 (BV786) from BD Bioscience. Stained cells were acquired using LSRFortessa™ (Becton Dickinson, San Jose, Calif., USA) and data analysis was performed using the FlowJo V10 (TreeStar Inc., Ashland, Oreg., USA). The results are represented as percentage of CD74^+ cells in CD11b^+CD11c^+ or CD11c^+MHCII^+ population.
Protein lysates were separated by electrophoresis, and immunoblotting analyses were performed for: total AKT, total p44/42 MAPK (ERK1/2), total IKKα, total IkBα, total NF-kB p65, phospho-AKT (Ser473), phospho-ERK1/2 (Thr202/Tyr204), phospho-IKKα/β (Ser176/180), phospho-IkBα (Ser32) and phospho-NFkB p65 (Ser536). GAPDH was assayed for loading control. HRP-conjugated secondary antibodies were used, followed by incubation with the ECL substrate (Millipore, Billerica, Mass.). All primary and secondary antibodies were purchased from Cell Signaling Technologies (Beverly, Mass., USA). Anti-CD74 receptor was also assayed (Abcam, Cambridge, UK). Phosphorylation ratios were quantified using ImageJ software. Results are represented in arbitrary units normalized to untreated control lanes.

[4] = tested on: B16F10-Nex2 melanoma cells; test: Therapeutic adoptive transfer of peptide-stimulated dendritic cells, metastatic melanoma; type: in vivo, syngeneic mice; conditions: DCs administered 8 days after melanoma challenge; compared to unstimulated or Rb10A1 treated DCs
From the text: DCs were inoculated s.c. in syngeneic mice, 8 days after the melanoma tumor cell challenge. The B16F10-Nex2 cell lysate was not used to prime DCs in this assay to avoid excess tumor antigen derived from tumor cell lysis in vivo, and a tolerogenic response. Lung nodules of melanoma cells injected i.v. and formed after 7 days and after 12 days, from 3 independent experiments were combined to represent colonization clusters for comparison with the therapeutic experiment of FIG. 6C.

[5] = tested on: pancreas carcinoma Panc02; test: Subcutaneous syngeneic pancreatic carcinoma model; type: in vivo, C57BL6 mice; conditions: 300 μg i.p., 5 doses every other day
Method: as §1, with “Tumor Cell Growth In Vitro and In Vivo Details of the in vitro tumor cell growth, cytotoxicity tests, determination of viable cells and in vivo protection experiments with B16F10 cells in a mouse metastatic model are described in Polonelli et al. (PLoS One. 3(6):e2371, 2008) and Dobroff et al. (Transl. Onc., 3: 204-217, 2010).” left out

[6] = tolerogenic conditions (TGF-beta+IL-10)

[CARGETARATFAYWGQGC], NH2 (C-C) [Rb9]
number of CD11c+HLA-DR+ cells ([1]; LPS-treated cells): decreased the number of cells
percentage of CD11c+HLA-DR+ cells ([1]; TGF-beta+IL-10 group): increased the percentage of cells
percentage of CD11c+HLA-DR+ cells ([1]; TNF group): little effect
co-stimulatory potential (CD80 and CD86 double-positive cells) ([1]; mild stimulus (TNF-alpha)): partially inhibitory
maturation of mo-DC (HLA-DR+CD83+) ([1]; mild stimulus (TNF-alpha)): enhanced their maturation
co-stimulatory potential (CD80 and CD86 double-positive cells) ([1]; strongly stimulated by LPS): clearly inhibitory
maturation of mo-DC (HLA-DR+CD83+) ([1]; strongly stimulated by LPS): inhibitory
co-stimulatory potential (CD80 and CD86 double-positive cells) [1, 6]: increased their co-stimulatory potential
maturation of mo-DC (HLA-DR+CD83+) [1, 6]: increased the maturation
protection in the metastatic model ([2]; 50-100 μg i.p. doses): significant protection
efficiency of administration route for antitumor protection ([2]; i.d. route compared with i.p. and i.v.): mostly efficient
antitumor activity (pulmonary nodules) ([2]; i.p., alone, Rb9 300 μg 5 consecutive days, Imiquimod 50 μg 3 alternate days, CpG and Poly (I:C) two alternate days, 15 days after challenge): Antitumor activities of Rb9 and Imiquimod were the same
antitumor activity of the combination of Rb9 and Imiquimod ([2]; i.p., 15 days after challenge): not additive
number of lung tumor cell nodules (protection) ([2]; immunocompetent C57Bl6 mice, 250 μg i.p. on days 1,3,5,7,9,11, lungs on day 22): clearly protective
best concentrations for protection, dose range per animal ([2]; metastatic model): 200 to 300 µg
expression of CD74 in CD11b+CD11c+ and CD11c+MHC-II+ cells [3]: increased expression
protection by peptide-stimulated DCs (lung nodules) [4]: significant protection
deaths up to the 40th day [5]: no deaths were recorded
s.c. tumor growth [5]: significantly delayed
